# From ChEMBL document CHEMBL4334513, “Discovery of a Potent, Selective, and Orally Available MTHFD2 Inhibitor (DS18561882) with in Vivo Antitumor Activity” (J Med Chem, 2019)
# Experiments:
# [1] = Cmax in BALBc mouse at 30 mg/kg, po measured for 24 hrs by LC-MS/MS analysis; assay type: ADME, organism-based; parameters: dose 30 mg/kg, route oral; details: in vivo
# [2] = Cmax in BALBc mouse at 10 mg/kg, po measured for 24 hrs by LC-MS/MS analysis; assay type: ADME, organism-based; parameters: dose 10 mg/kg, route oral; details: in vivo
# [3] = Toxicity in BALB/cAJcl nu/nu mouse xenografted with human MDA-MB-231-Luc cells assessed as body weight loss at 30 to 300 mg/kg, po administered bid for 11 days and measured every 1 to 2 days; assay type: organism-based; details: in vivo
# [4] = AUC in BALBc mouse at 30 mg/kg, po measured for 24 hrs by LC-MS/MS analysis; assay type: ADME, organism-based; details: in vivo
# [5] = Solubility of compound in pH 1.2; assay type: physicochemical; details: buffer
# [6] = Metabolic stability in mouse liver microsomes assessed as remaining parent compound at 1 uM after 0.5 hrs; assay type: ADME, Microsome; details: read-out: Stability
# [7] = Lipophilicity, logD of compound; assay type: physicochemical; details: octanol/water
# [8] = AUC in BALBc mouse at 10 mg/kg, po measured for 24 hrs by LC-MS/MS analysis; assay type: ADME, organism-based; details: in vivo
# [9] = Half life in BALBc mouse at 30 mg/kg, po measured for 24 hrs by LC-MS/MS analysis; assay type: ADME, organism-based; details: in vivo
# [10] = Effective permeability of compound at pH 5 by PAMPA; assay type: ADME; details: read-out: Peff
# [11] = Lipophilicity, logP of compound; assay type: physicochemical; details: octanol/water
# [12] = Free plasma concentration in BALBc mouse at 10 to 300 mg/kg, po measured after 24 hrs by LC-MS/MS analysis; assay type: ADME, organism-based; details: in vivo
# [13] = Solubility of compound in pH 6.8; assay type: physicochemical; details: buffer
# [14] = Cmax in BALBc mouse at 300 mg/kg, po measured for 24 hrs by LC-MS/MS analysis; assay type: ADME, organism-based; parameters: dose 300 mg/kg, route oral; details: in vivo
# [15] = Half life in BALBc mouse at 300 mg/kg, po measured for 24 hrs by LC-MS/MS analysis; assay type: ADME, organism-based; details: in vivo
# [16] = Effective permeability of compound at pH 7.4 by PAMPA; assay type: ADME; details: read-out: Peff
# [17] = Cmax in BALBc mouse at 100 mg/kg, po measured for 24 hrs by LC-MS/MS analysis; assay type: ADME, organism-based; parameters: dose 100 mg/kg, route oral; details: in vivo
# [18] = Antitumor activity against human MDA-MB-231-Luc cells xenografted in BALB/cAJcl nu/nu mouse assessed as tumour growth inhibition at 300 mg/kg, po administered bid for 11 days and measured every 2 to 3 days relative to control; assay type: functional; details: read-out: TGI
# [19] = AUC in BALBc mouse at 300 mg/kg, po measured for 24 hrs by LC-MS/MS analysis; assay type: ADME, organism-based; details: in vivo
# [20] = Antiproliferative activity against human MDA-MB-231-luc-D3H2LN cells assessed as inhibition of growth after 3 days by CellTiter Glo assay; assay type: functional; details: 72 h
# [21] = Half life in BALBc mouse at 10 mg/kg, po measured for 24 hrs by LC-MS/MS analysis; assay type: ADME, organism-based; details: in vivo
# [22] = Fraction unbound in mouse plasma; assay type: ADME, cell-free
# [23] = Half life in BALBc mouse at 100 mg/kg, po measured for 24 hrs by LC-MS/MS analysis; assay type: ADME, organism-based; details: in vivo
# [24] = AUC in BALBc mouse at 100 mg/kg, po measured for 24 hrs by LC-MS/MS analysis; assay type: ADME, organism-based; details: in vivo
# Description for Homo sapiens: Antitumor activity against human MDA-MB-231-Luc cells xenografted in orally dosed BALB/cAJcl nu/nu mouse assessed as tumour growth inhibition administered bid for 11 days and measured every 2 to 3 days relative to control
smiles,measurement,setting,value
Cc1c(N2CCN(C)[C@@H](C)C2)ccc2c3c(c(=O)oc12)CN(C(=O)c1ccc(NS(C)(=O)=O)c(OC(F)(F)F)c1)CC3,Cmax,[1],56.5 µg/mL
same,Cmax,[2],11.4 µg/mL
same,Activity,[3],Non-Toxic
same,AUC at 24 h,[4],264 µg·h/mL
same,solubility,[5],1100 µg/mL
same,"remaining at 0.5 h, 1 µM",[6],66%
same,logD,[7],1.9
same,AUC at 24 h,[8],64.4 µg·h/mL
same,half-life,[9],2.16 h
same,Papp,[10],17.2 ×10⁻⁶ cm/s
same,logP,[11],2.1
same,Cp(f),[12],0 ng/mL
same,solubility,[13],630 µg/mL
same,Cmax,[14],143 µg/mL
same,half-life,[15],4 h
same,Papp,[16],> 50 ×10⁻⁶ cm/s
same,Cmax,[17],90.1 µg/mL
same,TGI,Homo sapiens,Dose-dependent effect
same,inhibition in vivo at 300 mg/kg,[18],67%
same,AUC at 24 h,[19],1630 µg·h/mL
same,GI50,[20],340 nM
same,half-life,[21],2.21 h
same,fraction unbound,[22],0.031
same,half-life,[23],2.32 h
same,AUC at 24 h,[24],726 µg·h/mL
